One experiment has as its target T1, 5-lipoxygenase (Cavia porcellus, UniProt A0A286X958).
T1 construct: 105,000×g for 60 min to obtain the cytosol fraction; endogenous in cells; host or cells: casein-elicited peritoneal polymorphonuclear leukocytes of male Hartley guinea pigs, 105,000×g cytosol fraction
T1 sequence (A0A286X958 1-674): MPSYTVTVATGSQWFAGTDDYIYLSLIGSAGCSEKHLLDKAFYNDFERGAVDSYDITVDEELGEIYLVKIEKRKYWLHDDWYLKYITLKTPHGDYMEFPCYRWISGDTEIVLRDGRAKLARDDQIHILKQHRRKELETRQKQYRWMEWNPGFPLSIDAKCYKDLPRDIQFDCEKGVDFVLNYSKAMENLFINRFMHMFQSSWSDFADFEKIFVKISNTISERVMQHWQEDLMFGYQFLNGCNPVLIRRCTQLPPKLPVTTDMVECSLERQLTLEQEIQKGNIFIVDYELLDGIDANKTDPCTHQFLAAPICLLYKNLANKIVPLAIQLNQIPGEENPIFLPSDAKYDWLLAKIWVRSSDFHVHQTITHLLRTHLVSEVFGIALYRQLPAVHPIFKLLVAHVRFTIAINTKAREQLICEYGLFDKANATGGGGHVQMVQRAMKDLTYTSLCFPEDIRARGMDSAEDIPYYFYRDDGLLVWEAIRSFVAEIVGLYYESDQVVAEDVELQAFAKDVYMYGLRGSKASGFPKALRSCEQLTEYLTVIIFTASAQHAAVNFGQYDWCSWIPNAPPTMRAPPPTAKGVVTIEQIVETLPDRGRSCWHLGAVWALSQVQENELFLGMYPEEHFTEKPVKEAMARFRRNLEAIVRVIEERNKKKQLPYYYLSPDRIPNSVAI
Kind of experiment: Assay of 5-lipoxygenase (PMNL cytosol fraction, 5-HETE formation). The conditions noted are these: 3 min pre-incubation, then [1-14C]arachidonic acid 5 min, 37° C., 1% DMSO, 5-HETE counted. In kind it is biochemical, guinea pig (male Hartley strain). On the procedure: Assay of 5-lipoxygenase […] Male Hartley strain guinea pigs weighing 580~740 g received intraperitoneal injection of 2% casein in saline (5 ml/100 g body weight). After 16~18 hr, the guinea pigs were sacrificed by bleeding from the carotid artery. Then 50 ml of Dulbecco's phosphate-buffered saline (PBS(-)) containing 5 units/ml of heparin were injected into the peritoneal cavity and peritoneal exudate was collected. The exudate was combined and filtered through 4 layers of cheese cloth, followed by centrifugation at 1,000 rpm for 10 min. Cell pellets were suspended in small amounts of PBS(-) and treated 3 volumes of 0.2% NaCl to lyse contamination red blood cells. The cells (80% or more PMNL as identified by Wright-Giemsa stain) were washed twice with buffer A (130 mM NaCl, 25 mM phosphate, pH 7.4, 1 mM EDTA). The washed cells (1×10^8 cells/ml) were resuspended in 50 mM phosphate (pH 7.4) containing 1 mM EDTA and 0.1% gelatin, sonicated and centrifuged at 10,000×g for 20 min. The supernatant solution was further centrifuged at 105,000×g for 60 min to obtain the cytosol fraction. Enzyme assays Test compounds were dissolved in dimethyl sulfoxide (DMSO), and the final concentration of DMSO was kept at 1% in each experiment. […] Each reaction was terminated by precipitating the proteins with 1 ml acetone and added 0.5 ml ice-cold saline. The pH was adjusted to about 3 with 150 μl 2N formic acid. The mixture was extracted twice with 2 ml chloroform. […] Radioactive zone of 5-HETE [5(S)-hydroxy-6,8,11,14-eicosatetraenoic acid] was detected by autoradiography, scraped from the TLC plates, and counted by a liquid scintillation counter. IC50 (50% Inhibition Concentration) value indicates the concentration to decrease the enzymatic product by 50% as compared to that of vehicle-treated control.

For a further experiment, the target named is T2, platelet cyclooxygenase (Oryctolagus cuniculus, UniProt O97554).
T2 construct: 1 ml of intact washed platelet suspensions were pre-incubated with test compounds; endogenous in cells; host or cells: intact washed platelets of male New Zealand White rabbits
T2 sequence (O97554 31-606): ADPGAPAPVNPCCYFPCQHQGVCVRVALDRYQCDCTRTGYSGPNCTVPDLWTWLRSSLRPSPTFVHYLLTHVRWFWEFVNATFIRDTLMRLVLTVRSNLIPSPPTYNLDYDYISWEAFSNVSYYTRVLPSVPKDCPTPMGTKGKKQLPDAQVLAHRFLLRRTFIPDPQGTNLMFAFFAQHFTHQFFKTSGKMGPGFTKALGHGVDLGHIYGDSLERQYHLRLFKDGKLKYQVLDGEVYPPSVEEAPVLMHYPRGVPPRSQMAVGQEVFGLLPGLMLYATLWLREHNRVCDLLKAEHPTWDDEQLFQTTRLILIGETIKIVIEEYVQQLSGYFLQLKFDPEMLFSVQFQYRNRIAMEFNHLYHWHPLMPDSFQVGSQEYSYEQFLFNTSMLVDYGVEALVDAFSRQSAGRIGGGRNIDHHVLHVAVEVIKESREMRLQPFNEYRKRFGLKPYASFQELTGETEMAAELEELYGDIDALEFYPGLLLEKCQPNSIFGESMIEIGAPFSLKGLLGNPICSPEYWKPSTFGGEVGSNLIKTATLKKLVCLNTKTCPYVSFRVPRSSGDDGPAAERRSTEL
Kind of experiment: Assay of platelet cyclooxygenase (intact washed platelets, TXB2 formation). In kind it is cell-based, rabbit (male New Zealand White). To be noted: 3 min pre-incubation, then [1-14C]arachidonic acid 5 min, 37° C., TXB2 counted. On the procedure: Assay of platelet cyclooxygenase
Preparation of washed platelet
Citrated blood (blood/3.8% sodium citrate=9:1 by volume) was obtained by heart-puncture from male New Zealand White rabbits weighing 3.21~4.75 kg and centrifuged at 1,000 rpm for 10 min. The platelet-rich plasma (the supernatant layer: PRP) was further centrifuged at 3,000 rpm for 10 min, and the resulting platelet was washed twice with buffer A (130 mM NaCl, 25 mM phosphate, pH 7.4, 1 mM EDTA). The washed platelets were resuspended in 50 mM phosphate (pH 7.4) containing 1 mM EDTA and adjusted 1×10^8 platelets/ml.
For the platelet cyclooxygenase assays, 1 ml of intact washed platelet suspensions were pre-incubated with test compounds (dissolved in DMSO) in the presence of 1 mM GSH at 37° C. for 3 min, and then the mixture was incubated with [1-^14 C]arachidonic acid (0.1 μCi) at 37° C. for 5 min. Each reaction was terminated and extracted by the addition of 3 ml of ethyl acetate/methanol/1M citric acid (30:4:1, v/v). The organic layer was evaporated under a N2 gas stream, redissolved in 30 μl of chloroform/methanol (2:1, v/v), and applied 20 μl to Silica gel TLC plates, and developed in the solvent system chloroform/methanol/acetic acid/H2 O (90:8:1:0.8, v/v). Radioactive zone of TXB2 (Thromboxane B2) was detected by autoradiography, scraped from the TLC plates, and counted by a liquid scintillation counter. IC50 value indicates the concentration to decrease the enzymatic product by 50% as compared to that of vehicle-treated control.

The next experiment has as its system lipoxygenase. To be noted: background art; cited from earlier work.
The test system of a further experiment is cyclooxygenase. The conditions noted are these: background art; cited from earlier work.

Molecules are shown by their SMILES.

For orientation: IC50 means the midpoint of a concentration-inhibition curve. High values mean a need for much substance, low ones inhibition by little substance. Consider `COc1ccc2c(c1)c(CC(=O)OC(CN1CCN(CCCCCCCCCCO)CC1)c1ccccc1)c(C)n2C(=O)c1ccc(Cl)cc1` (stereo not shown) [Example 12, 2-{4-(10-hydroxydecyl)-1-piperazinyl}-1-phenylethyl 1-(p-chlorobenzoyl)-5-methoxy-2-methyl-3-indoylacetate dimaleate], for which the IC50 against 5-lipoxygenase came out at 0.9 µM.

Turning to `COc1ccc2c(c1)c(CC(=O)OC(C)(C)CN1CCN(CCCOC3CCCCO3)CC1)c(C)n2C(=O)c1ccc(Cl)cc1` (stereo not shown) [Example 13, 1-methyl-2-[4-{3-(2-tetrahydropyranyloxy)propyl}-1-piperazinyl]-2-methyl-2-propyl 1-(p-chlorobenzoyl)-5-methoxy-2-methyl-3-indoylacetate], the values for the IC50 at platelet cyclooxygenase and at 5-lipoxygenase were 22.3 µM and 4.7 µM, respectively.

As to `COc1ccc2c(c1)c(CC(=O)OC(CN1CCN(CCCO)CC1)c1ccccc1)c(C)n2C(=O)c1ccc(Cl)cc1` (stereo not shown) [Example 7, 2-{4-(3-hydroxypropyl)-1-piperazinyl}-1-phenylethyl 1-(p-clorobenzoyl)-5-methoxy-2-methyl-3-indoylacetate dimaleate], the IC50 came to 20.4 µM against platelet cyclooxygenase and 1.6 µM against 5-lipoxygenase.

With `COc1ccc2c(c1)c(CC(=O)OC(C)CN1CCN(CCCO)CC1)c(C)n2C(=O)c1ccc(Cl)cc1` (stereo not shown) [Example 8, 2-{4-(3-hydroxypropyl)-1-piperazinyl}-1-methylethyl 1-(p-chlorobenzoyl)-5-methoxy-2-methyl-3-indoylacetate dimaleate], the half-inhibitory concentration (IC50) came to 30.6 µM against platelet cyclooxygenase and 6.9 µM against 5-lipoxygenase.

On to `COc1ccc2c(c1)c(CC(=O)OC(C)CN1CCN(CCCCCCO)CC1)c(C)n2C(=O)c1ccc(Cl)cc1` (stereo not shown) [Example 11, 2-{4-(6-hydroxyhexyl)-1-piperazinyl}-1-methylethyl 1-(p-chlorobenzoyl)-5-methoxy-2-methyl-3-indoylacetate dimaleate], for which the IC50 is 41.2 µM at platelet cyclooxygenase and 4.7 µM against 5-lipoxygenase.

`COc1ccc2c(c1)c(CC(=O)OC(CN1CCN(CCO)CC1)c1ccccc1)c(C)n2C(=O)c1ccc(Cl)cc1` (stereo not shown) [Example 9, 2-{4-(2-hydroxyethyl)-1-piperazinyl}-1-phenylethyl 1-(p-chlorobenzoyl)-5-methoxy-2-methyl-3-indoylacetate dimaleate]: the IC50 is 9.2 µM against platelet cyclooxygenase and 1.7 µM against 5-lipoxygenase.

With `CC(C(=O)O)c1ccc2oc(-c3ccc(Cl)cc3)nc2c1` (stereo not drawn) [Benoxaprofen, 2-(4-chlorophenyl)-α-methyl-5-benzoxazoleacetic acid], the “lipoxygenase inhibition (in words)” value in the experiment on lipoxygenase is “lipoxygenase-inhibiting actions”. This molecule also gave a half-inhibitory concentration (IC50) against 5-lipoxygenase of 24 µM. Besides, the “cyclooxygenase inhibition (in words)” value with cyclooxygenase was “cyclooxygenase-inhibiting”.

For the molecule `COc1ccc2c(c1)c(CC(=O)O)c(C)n2C(=O)c1ccc(Cl)cc1` [Indomethacin], the “lipoxygenase inhibition (in words)” value in the experiment with lipoxygenase is “does not inhibit lipoxygenase reaction”. At 5-lipoxygenase, this molecule had a half-inhibitory concentration (IC50) of 242 µM. In addition, the “cyclooxygenase inhibition (in words)” value with cyclooxygenase was “has cyclooxygenase-inhibiting action”.

Take `COc1ccc2c(c1)c(CC(=O)OC(C)CN1CCN(CCCCCO)CC1)c(C)n2C(=O)c1ccc(Cl)cc1` (stereo not shown) [Example 10, 2-{4-(5-hydroxypentyl)-1-piperazinyl}-1-methylethyl 1-(p-chlorobenzoyl)-5-methoxy-2-methyl-3-indoylacetate dimaleate]: the half-maximal inhibitory concentration (IC50) at platelet cyclooxygenase is 22.8 µM; at 5-lipoxygenase, 6.2 µM.

These data come from patent publication US4696929A, “Derivative of piperazine having anti-allergic and anti-inflammatory action” (Taiho Pharmaceutical Company, Limited, priority 1984, dated 1987).
